In patent publication US10292391B2, “Pesticidally active 1,2,4-triazole derivatives with sulphur containing substituents” (Syngenta Participations AG, priority 2015, dated 2019):

Legend:
Format in all cases: in vivo
[1] = system: Bemisia tabaci (Cotton White Fly); experiment: Activity against Bemisia tabaci, sprayed cotton leaf discs; conditions: foliar, 144 h, application rate of 200 ppm, adult white flies, 6 days after incubation
Procedure: Cotton leaf discs were placed on agar in 24-well microtiter plates and sprayed with aqueous test solutions prepared from 10,000 ppm DMSO stock solutions. After drying the leaf discs were infested with adult white flies. The samples were checked for mortality 6 days after incubation.

[2] = system: Spodoptera littoralis (Egyptian Cotton Leaf Worm); experiment: Activity against Spodoptera littoralis, systemic via lettuce grown on treated agar; conditions: 144 h, test rate of 12.5 ppm, root uptake by lettuce, 6 days after infestation, read-out: effect in at least one of the three categories (mortality, anti-feedancy, or growth inhibition)
Excerpt: Test compounds were applied by pipette from 10,000 ppm DMSO stock solutions into 24-well plates and mixed with agar. Lettuce seeds were placed on the agar and the multi well plate was closed by another plate which contains also agar. After 7 days the roots have absorbed the compound and the lettuce has grown into the lid plate. The lettuce leafs were now cut off into the lid plate. Spodoptera eggs were pipetted through a plastic stencil on a humid gel blotting paper and the plate closed with it. The samples were assessed for mortality, anti-feedant effect and growth inhibition in comparison to untreated samples 6 days after infestation.

[3] = system: Thrips tabaci (Onion Thrips); experiment: Activity against Thrips tabaci, sprayed sunflower leaf discs; conditions: foliar, 144 h, application rate of 200 ppm, thrips population of mixed ages, 6 days after infestation
Procedure: Sunflower leaf discs were placed on agar in 24-well microtiter plates and sprayed with aqueous test solutions prepared from 10,000 ppm DMSO stock solutions. After drying the leaf discs were infested with a thrips population of mixed ages. The samples were assessed for mortality 6 days after infestation.

[4] = system: Spodoptera littoralis (Egyptian Cotton Leaf Worm); experiment: Activity against Spodoptera littoralis, sprayed cotton leaf discs; conditions: foliar, 72 h, application rate of 200 ppm, L1 larvae, 3 days after infestation, read-out: control (at least one of mortality, anti-feedant effect, and growth inhibition)
Procedure: Cotton leaf discs were placed on agar in 24-well microtiter plates and sprayed with aqueous test solutions prepared from 10,000 ppm DMSO stock solutions. After drying the leaf discs were infested with five L1 larvae. The samples were assessed for mortality, anti-feedant effect, and growth inhibition in comparison to untreated samples 3 days after infestation. Control of Spodoptera littoralis by a test sample is when at least one of mortality, anti-feedant effect, and growth inhibition is higher than the untreated sample.

[5] = system: Plutella xylostella (Diamond Back Moth); experiment: Activity against Plutella xylostella, treated artificial diet; conditions: 120 h, application rate of 200 ppm, L2 larvae, 5 days after infestation, read-out: effect in at least one of the two categories (mortality or growth inhibition)
Procedure: 24-well microtiter plates with artificial diet were treated with aqueous test solutions prepared from 10,000 ppm DMSO stock solutions by pipetting. After drying, the plates were infested with L2 larvae (10 to 15 per well). The samples were assessed for mortality and growth inhibition in comparison to untreated samples 5 days after infestation.

[6] = system: Euschistus heros(Neotropical Brown Stink Bug); experiment: Activity against Euschistus heros, sprayed soybean leaf; conditions: 120 h, application rate of 200 ppm, N-2 nymphs, 5 days after infestation, read-out: effect in at least one of the two categories (mortality or growth inhibition)
Procedure: Soybean leaf on agar in 24-well microtiter plates were sprayed with aqueous test solutions prepared from 10,000 ppm DMSO stock solutions. After drying the leaf were infested with N-2 nymphs. The samples were assessed for mortality and growth inhibition in comparison to untreated samples 5 days after infestation.

[7] = system: Diabrotica Balteata (Corn Root Worm); experiment: Activity against Diabrotica balteata, sprayed maize sprouts; conditions: 96 h, application rate of 200 ppm, L2 larvae, 4 days after infestation, read-out: effect in at least one of the two categories (mortality or growth inhibition)
Procedure: Maize sprouts, placed on an agar layer in 24-well microtiter plates were treated with aqueous test solutions prepared from 10,000 ppm DMSO stock solutions by spraying. After drying, the plates were infested with L2 larvae (6 to 10 per well). The samples were assessed for mortality and growth inhibition in comparison to untreated samples 4 days after infestation.

[8] = system: Myzus persicae (Green Peach Aphid); experiment: Activity against Myzus persicae, sprayed sunflower leaf discs; conditions: foliar, 144 h, application rate of 200 ppm, aphid population of mixed ages, 6 days after infestation
Procedure: Sunflower leaf discs were placed on agar in a 24-well microtiter plate and sprayed with aqueous test solutions prepared from 10,000 ppm DMSO stock solutions. After drying, the leaf discs were infested with an aphid population of mixed ages. The samples were assessed for mortality 6 days after infestation.

[9] = system: Frankliniella occidentalis (Western Flower Thrips); experiment: Activity against Frankliniella occidentalis, sprayed sunflower leaf discs; conditions: foliar, 168 h, application rate of 200 ppm, population of mixed ages, 7 days after infestation
Procedure: Sunflower leaf discs were placed on agar in 24-well microtiter plates and sprayed with aqueous test solutions prepared from 10,000 DMSO stock solutions. After drying the leaf discs were infested with a Frankliniella population of mixed ages. The samples were assessed for mortality 7 days after infestation.

[10] = system: Myzus persicae (Green Peach Aphid); experiment: Activity against Myzus persicae, systemic via roots of pea seedlings; conditions: 144 h, test rate of 24 ppm, roots of pea seedlings in test solution, 6 days
Procedure: Roots of pea seedlings infested with an aphid population of mixed ages were placed directly in the aqueous test solutions prepared from 10,000 DMSO stock solutions. The samples were assessed for mortality 6 days after placing seedlings in test solutions.

CCS(=O)(=O)c1cc(-n2cc(C(F)(F)F)cn2)cnc1-c1nnc(-c2cc(C(F)(F)F)ccn2)n1C [Compound P6]
≥ 80%: mortality at 200 ppm [1] | percent control (mortality, anti-feedancy or growth inhibition) at 12.5 ppm [2] | mortality at 200 ppm [3] | mortality at 200 ppm [4] | percent effect (mortality or growth inhibition) at 200 ppm [5] | percent effect (mortality or growth inhibition) at 200 ppm [6] | percent effect (mortality or growth inhibition) at 200 ppm [7] | mortality at 200 ppm [8] | mortality at 200 ppm [9]

CCS(=O)(=O)c1cc(-n2cc(Cl)cn2)cnc1-c1nnc(-c2cc(C(F)(F)F)ccn2)n1C [Compound P7]
≥ 80%: percent control (mortality, anti-feedancy or growth inhibition) at 12.5 ppm [2] | mortality at 200 ppm [3] | mortality at 200 ppm [4] | percent effect (mortality or growth inhibition) at 200 ppm [5] | percent effect (mortality or growth inhibition) at 200 ppm [6] | percent effect (mortality or growth inhibition) at 200 ppm [7] | mortality at 200 ppm [8] | mortality at 200 ppm [9]

CCS(=O)(=O)c1cc(-n2cnc(C#N)c2)cnc1-c1nnc(-c2cc(C(F)(F)F)ccn2)n1C [Compound P15]
≥ 80%: mortality at 200 ppm [3] | mortality at 24 ppm [10]

CCS(=O)(=O)c1cc(-c2ccc(C#N)cn2)cnc1-c1nnc(-c2cc(C(F)(F)F)ccn2)n1C [Compound P22]
≥ 80%: percent control (mortality, anti-feedancy or growth inhibition) at 12.5 ppm [2] | mortality at 200 ppm [3] | mortality at 200 ppm [4] | percent effect (mortality or growth inhibition) at 200 ppm [5] | percent effect (mortality or growth inhibition) at 200 ppm [6] | percent effect (mortality or growth inhibition) at 200 ppm [7] | mortality at 200 ppm [8] | mortality at 200 ppm [9]

CCS(=O)(=O)c1cc(-c2cc(C#N)ccn2)cnc1-c1nnc(-c2cc(C(F)(F)F)ccn2)n1C [Compound P23]
≥ 80%: percent control (mortality, anti-feedancy or growth inhibition) at 12.5 ppm [2] | mortality at 200 ppm [3] | mortality at 24 ppm [10] | mortality at 200 ppm [4] | percent effect (mortality or growth inhibition) at 200 ppm [5] | percent effect (mortality or growth inhibition) at 200 ppm [6] | percent effect (mortality or growth inhibition) at 200 ppm [7] | mortality at 200 ppm [8] | mortality at 200 ppm [9]

CCS(=O)(=O)c1cc(-c2ccc(Cl)cn2)cnc1-c1nnc(-c2cc(C(F)(F)F)ccn2)n1C [Compound P25]
≥ 80%: percent control (mortality, anti-feedancy or growth inhibition) at 12.5 ppm [2] | mortality at 200 ppm [3] | mortality at 200 ppm [4] | percent effect (mortality or growth inhibition) at 200 ppm [5] | percent effect (mortality or growth inhibition) at 200 ppm [6] | percent effect (mortality or growth inhibition) at 200 ppm [7]

CCS(=O)(=O)c1cc(-c2cc(Cl)ccn2)cnc1-c1nnc(-c2cc(C(F)(F)F)ccn2)n1C [Compound P26]
≥ 80%: percent control (mortality, anti-feedancy or growth inhibition) at 12.5 ppm [2] | mortality at 200 ppm [3] | mortality at 200 ppm [4] | percent effect (mortality or growth inhibition) at 200 ppm [5] | percent effect (mortality or growth inhibition) at 200 ppm [6] | percent effect (mortality or growth inhibition) at 200 ppm [7] | mortality at 200 ppm [8] | mortality at 200 ppm [9]

CCS(=O)(=O)c1cc(C2CC2)cnc1-c1nnc(-c2cc(C(F)(F)F)ccn2)n1C [Compound P29, 5-cyclopropyl-3-ethylsulfonyl-2-[4-methyl-5-[4-(trifluoromethyl)-2-pyridyl]-1,2,4-triazol-3-yl]pyridine]
≥ 80%: percent control (mortality, anti-feedancy or growth inhibition) at 12.5 ppm [2] | mortality at 200 ppm [3] | mortality at 24 ppm [10] | mortality at 200 ppm [4] | percent effect (mortality or growth inhibition) at 200 ppm [5] | percent effect (mortality or growth inhibition) at 200 ppm [7] | mortality at 200 ppm [8]

CCS(=O)(=O)c1ccc(-c2ccc(C(F)(F)F)cc2)nc1-c1nnc(-c2cc(C(F)(F)F)ccn2)n1C [Compound P32, 3-ethylsulfonyl-2-[4-methyl-5-[4-(trifluoromethyl)-2-pyridyl]-1,2,4-triazol-3-yl]-6-[4-(trifluoromethyl)phenyl]pyridine]
≥ 80%: mortality at 200 ppm [1] | mortality at 200 ppm [3] | mortality at 200 ppm [4] | percent effect (mortality or growth inhibition) at 200 ppm [5] | percent effect (mortality or growth inhibition) at 200 ppm [7]

CCS(=O)(=O)c1ccc(-n2cncn2)nc1-c1nnc(-c2cc(C(F)(F)F)ccn2)n1C [Compound P37]
≥ 80%: mortality at 200 ppm [1] | mortality at 24 ppm [10] | mortality at 200 ppm [4] | percent effect (mortality or growth inhibition) at 200 ppm [5] | percent effect (mortality or growth inhibition) at 200 ppm [6] | percent effect (mortality or growth inhibition) at 200 ppm [7] | mortality at 200 ppm [8]

CCS(=O)(=O)c1cc(-n2cnc(Cl)n2)cnc1-c1nnc(-c2cc(C(F)(F)F)ncn2)n1C [Compound P45]
≥ 80%: mortality at 200 ppm [1] | mortality at 200 ppm [3] | mortality at 24 ppm [10] | mortality at 200 ppm [4] | percent effect (mortality or growth inhibition) at 200 ppm [5] | percent effect (mortality or growth inhibition) at 200 ppm [6] | percent effect (mortality or growth inhibition) at 200 ppm [7] | mortality at 200 ppm [8] | mortality at 200 ppm [9]

CCS(=O)(=O)c1ccc(-n2cnc(Cl)n2)nc1-c1nnc(-c2cc(C(F)(F)F)ncn2)n1C [Compound P48, 4-[5-[6-(3-chloro-1,2,4-triazol-1-yl)-3-ethylsulfonyl-2-pyridyl]-4-methyl-1,2,4-triazol-3-yl]-6-(trifluoromethyl)pyrimidine]
≥ 80%: mortality at 200 ppm [1] | percent control (mortality, anti-feedancy or growth inhibition) at 12.5 ppm [2] | mortality at 200 ppm [4] | percent effect (mortality or growth inhibition) at 200 ppm [5] | percent effect (mortality or growth inhibition) at 200 ppm [6] | percent effect (mortality or growth inhibition) at 200 ppm [7] | mortality at 200 ppm [8] | mortality at 200 ppm [9]
